{"source": "patent US8608961B2", "about": "“Method for affinity chromatography of antithrombin III” (Aventis Pharma S.A., priority 2005, dated 2013)", "test_system": "factor Xa", "assay": "anti-Xa activity of fractions separated by ATIII affinity chromatography", "assay_type": "biochemical", "details": "fractions of LMWH (hexasaccharides) separated on ATIII affinity column 1 (protection: enoxaparin) or column 2 (protection: heparin); hexasaccharide for comparison", "text": "The composition of the elution fractions may then be analyzed according to methods well known to those skilled in the art. Thus, if the fractions analyzed comprise oligosaccharides, those skilled in the art may use the analytical methods described in the prior art: for example and in a nonlimiting manner, capillary electrophoresis, MALDI-TOF mass spectrophotometry, high performance liquid chromatography. Those skilled in the art may also use a biological assay, such as the factor Xa inhibition assay.\nIn order to corroborate the structural analysis, the anti-Xa activities of the fractions having affinity and not having affinity, separated in column 1 (protection: enoxaparin), were determined."}
{"substance": "ΔUA-(1→4)α-GlcNAc(6S)-(1→4)β-GlcA-(1→4)α-GlcNS(NS,3,6S)-(1→4)β-IdA2S-(1→4)α-GlcNS(NS,6S)", "values": [{"measurement": "anti-Xa activity", "result": "650-700 IU/mg"}]}
